Calls of active or inactive are those of the source. The calls are words filed in the database; no cut-off is given here.
test system: Rattus norvegicus; assay: Compound was tested for in vivo potency in the rat anaphylaxis assay; assay type: functional

Row | SMILES | ED50 [mg/kg]
1 | N#Cc1cccc(N2CCCC(=O)N2)c1 | 23

biological target: T1, Polyunsaturated fatty acid 5-lipoxygenase (Homo sapiens, UniProt P09917); assay: Inhibitory activity against 5-lipoxygenase.
T1 sequence (P09917 whole entry): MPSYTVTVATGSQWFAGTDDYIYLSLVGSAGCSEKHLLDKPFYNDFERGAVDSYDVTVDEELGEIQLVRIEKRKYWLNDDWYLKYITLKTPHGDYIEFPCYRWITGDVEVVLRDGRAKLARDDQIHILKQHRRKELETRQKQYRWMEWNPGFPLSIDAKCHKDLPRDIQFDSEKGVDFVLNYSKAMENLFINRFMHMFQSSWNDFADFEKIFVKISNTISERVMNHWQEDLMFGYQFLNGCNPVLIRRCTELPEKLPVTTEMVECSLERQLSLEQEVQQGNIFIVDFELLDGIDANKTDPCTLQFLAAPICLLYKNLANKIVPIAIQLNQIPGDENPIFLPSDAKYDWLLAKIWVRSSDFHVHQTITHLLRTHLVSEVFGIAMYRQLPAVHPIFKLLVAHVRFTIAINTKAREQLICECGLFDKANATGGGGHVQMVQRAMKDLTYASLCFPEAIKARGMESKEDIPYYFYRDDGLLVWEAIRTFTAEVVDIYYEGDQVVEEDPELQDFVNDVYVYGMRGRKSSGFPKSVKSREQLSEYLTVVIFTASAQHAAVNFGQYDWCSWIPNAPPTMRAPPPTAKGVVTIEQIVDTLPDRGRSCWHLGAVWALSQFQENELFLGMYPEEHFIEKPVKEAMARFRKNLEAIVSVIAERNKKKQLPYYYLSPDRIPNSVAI

Row | SMILES | IC50 [µM]
2 | CC(C)(C)C(=O)c1cccc(N2CCCC(=O)N2)c1 | 15
3 | COc1ccccc1N1CCCC(=O)N1 | 204
4 | CCCCCCCCN1CCCC(=O)N1 | 23
5 | CCc1ccccc1N1CCCC(=O)N1 | 39
6 | CCCCCCCCCCCCN1CCCC(=O)N1 | 6
7 | O=C1CCCN(c2cccc(C(F)(F)F)c2)N1 | 5.2
8 | CCCC(=O)NNc1ccccc1 | 52
9 | Cc1ccccc1N1CCCC(=O)N1 | 57
10 | CCOC(=O)c1cccc(N2CCCC(=O)N2)c1 | 5.6
11 | Cc1ccccc1N1CCC(=O)N1 | 8.2
12 | Cc1cccc(N2CCC(=O)N2)c1 | 1.3
13 | CC(=O)c1cccc(N2CCCC(=O)N2)c1 | 19
14 | O=C1CCN(c2ccccc2Cl)N1 | 3.7
15 | CC(=O)NNc1ccccc1 | 65

Results, then the molecule that gave them:

Row | IC50 [µM] | SMILES
16 | 1.1 | O=C1CCN(c2ccc(Cl)cc2)N1
17 | 99 | O=C1CCCN(c2ccccc2Cl)N1
18 | 125 | CCc1ccc(N2CCCC(=O)N2)cc1
19 | 0.73 | O=C1CCN(c2cccc(Cl)c2)N1
20 | 6.7 | COc1cccc(N2CCCC(=O)N2)c1
21 | 9.3 | N#Cc1cccc(N2CCCC(=O)N2)c1
22 | 3.8 | O=C1CCCN(c2ccccc2)N1
23 | 1.8 | O=C1CCCN(c2cccc(Br)c2)N1
24 | 3 | CCc1cccc(N2CCCC(=O)N2)c1
25 | 277 | Cc1ccc(N2CCCC(=O)N2)cc1
26 | 3.4 | Cc1cccc(N2CCCC(=O)N2)c1
27 | 5.5 | O=C1CCCN(c2cccc(F)c2)N1
28 | 2.5 | O=C1CCCN(c2cccc(Cl)c2)N1
29 | 79 | O=C1CCCN(c2ccc(Cl)cc2)N1
30 | 156 | COc1ccc(N2CCCC(=O)N2)cc1
31 | 3.5 | Cc1ccc(N2CCC(=O)N2)cc1
32 | 53 | O=C1CCCN(c2cccc(CO)c2)N1

biological target: T1, Polyunsaturated fatty acid 5-lipoxygenase; assay: Inhibitory Activity against 5-Lipoxygenase was determined; IA=Inactive

Row | IC50 | SMILES
33 | Not Active | CCOC(=O)CCCCN(N)c1ccccc1
34 | Not Active | CCOC(=O)CCCCCN(N)c1ccccc1

biological target: T1, Polyunsaturated fatty acid 5-lipoxygenase; assay: Inhibitory Activity against 5-Lipoxygenase was determined; IA=Inactive at concentrations less than 32 uM

Row | IC50 | SMILES
35 | Not Active | O=C1CCCCN(c2ccccc2)N1

biological target: T1, Polyunsaturated fatty acid 5-lipoxygenase; assay: Inhibitory Activity against 5-Lipoxygenase was determined; NA=No significant inhibitory activity up to 300 uM

Row | IC50 | SMILES
36 | Not Active | O=C1CCCN(c2cccc(C(=O)O)c2)N1

biological target: T2, Polyunsaturated fatty acid 5-lipoxygenase (Homo sapiens) (UniProt P09917); assay: Inhibitory Activity against 5-Lipoxygenase at concentration 32 uM was determined
T2 sequence (whole entry): T1 sequence (P09917 whole entry)

Row | inhibition [%] | SMILES
37 | 8 | O=C1CCCCCN(c2ccccc2)N1

biological target: T2, Polyunsaturated fatty acid 5-lipoxygenase (Homo sapiens); assay: Inhibitory Activity against 5-Lipoxygenase at 30 uM was determined; Weakly active

Row | inhibition [%] | SMILES
38 | 24 | O=C1CCC(=O)N(c2ccccc2)N1

biological target: T2, Polyunsaturated fatty acid 5-lipoxygenase (Homo sapiens); assay: In vitro inhibition of 5-Lipoxygenase; Inactive.

Row | Activity | SMILES
39 | inactive | CCCCCN1CCCC(=O)N1
40 | inactive | O=C1CCCN(C2CCCCC2)N1
41 | inactive | O=C1CCCC(c2ccccc2)=N1
42 | inactive | O=C1CCCN(Cc2ccccc2)N1
43 | inactive | O=C1CCCN(c2ccccc2)N1C(=O)c1ccccc1
44 | inactive | CC1CCC(=O)N(c2ccccc2)N1 (stereo unspecified)
45 | inactive | CC1=NN(c2ccccc2)C(=O)CC1
46 | inactive | c1ccc(N2CCCCN2)cc1
47 | inactive | O=C1CCC(c2ccccc2)NN1 (stereo unspecified)
48 | inactive | CN1C(=O)CCCN1c1ccccc1
49 | inactive | O=C1CCCNN1
50 | inactive | CCC(=O)N1C(=O)CCCN1c1ccccc1
51 | inactive | O=C1CCCN(c2ccccc2)N1c1ccccc1
52 | inactive | O=C1CCCC(c2ccccc2)N1 (stereo unspecified)
53 | inactive | O=C1CCCN(c2ccccc2)C1
54 | inactive | C1=NN(c2ccccc2)CCC1
55 | inactive | O=C1CCCN(C(=O)c2ccccc2)N1
56 | inactive | O=C1CCC(c2ccccc2)=NN1

Source: ChEMBL document CHEMBL1126356, “Structure-activity relationships of the pyridazinone series of 5-lipoxygenase inhibitors” (Bioorg Med Chem Lett, 1992)
